Laboratory results as given in the supplement of paper PMC10307832.

Columns and labels:
Test in all cases: relative viability (nuclei count vs DMSO), 5 days (fraction); higher = more cells survive
AZD5582 + Lapatinib = compound: C[C@@H](C(=O)N[C@@H](C1CCCCC1)C(=O)N2CCC[C@H]2C(=O)N[C@@H]3[C@@H](CC4=CC=CC=C34)OCC#CC#CCO[C@@H]5CC6=CC=CC=C6[C@@H]5NC(=O)[C@@H]7CCCN7C(=O)[C@H](C8CCCCC8)NC(=O)[C@H](C)NC)NC [AZD5582] + CS(=O)(=O)CCNCc1ccc(-c2ccc3ncnc(Nc4ccc(OCc5cccc(F)c5)c(Cl)c4)c3c2)o1 [Lapatinib] (partner 2 µM)
Procedure, shortened: (§1)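 Relative viability was taken as the ratio of nuclei in treated wells to nuclei in vehicle wells. Lung cancer cell lines in 1536-well plates received compounds by pin tool one day after seeding, either one drug alone or a fixed anchor-drug dose plus five library-drug doses (not always all listed) in √10 steps. Nuclei were counted on 4× images after 5 days of treatment, and values are medians of duplicate plates.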

[1] = compound: Cn1nnc2c(C(N)=O)ncn2c1=O [Temozolomide] + Cc1cc(Nc2cc(N3CCN(C)CC3)nc(Sc3ccc(NC(=O)C4CC4)cc3)n2)n[nH]1 [Tozasertib] (partner 0.1 µM)
Procedure, shortened: as §1

Temozolomide + Alpelisib = compound: Cn1nnc2c(C(N)=O)ncn2c1=O [Temozolomide] + Cc1nc(NC(=O)N2CCC[C@H]2C(N)=O)sc1-c1ccnc(C(C)(C)C(F)(F)F)c1 [Alpelisib] (partner 2 µM)
Procedure, shortened: as §1

Temozolomide + Olaparib = compound: Cn1nnc2c(C(N)=O)ncn2c1=O [Temozolomide] + O=C(c1cc(Cc2n[nH]c(=O)c3ccccc23)ccc1F)N1CCN(C(=O)C2CC2)CC1 [Olaparib] (partner 8 µM)
Procedure, shortened: as §1

Cell Line	relative viability (AZD5582 + Lapatinib; first compound 0.001581 µM)	relative viability (AZD5582 + Lapatinib; first compound 0.005 µM)	relative viability (AZD5582 + Lapatinib; first compound 0.01581 µM)	relative viability (AZD5582 + Lapatinib; first compound 0.05 µM)	relative viability ([1]; first compound 0.2 µM)	relative viability ([1]; first compound 0.6325 µM)	relative viability ([1]; first compound 2 µM)	relative viability ([1]; first compound 6.325 µM)	relative viability ([1]; first compound 20 µM)	relative viability (Temozolomide + Alpelisib; first compound 0.2 µM)	relative viability (Temozolomide + Alpelisib; first compound 0.6325 µM)	relative viability (Temozolomide + Alpelisib; first compound 2 µM)	relative viability (Temozolomide + Alpelisib; first compound 6.325 µM)	relative viability (Temozolomide + Alpelisib; first compound 20 µM)	relative viability (Temozolomide + Olaparib; first compound 0.2 µM)	relative viability (Temozolomide + Olaparib; first compound 0.6325 µM)	relative viability (Temozolomide + Olaparib; first compound 2 µM)	relative viability (Temozolomide + Olaparib; first compound 6.325 µM)	relative viability (Temozolomide + Olaparib; first compound 20 µM)
201T	1.03	1.16	1.05	1.2	1.01	0.888	0.987	0.943	0.914	0.977	1.05	1.04	1.04	0.985	0.843	0.891	0.884	0.809	0.742
A549	0.896	0.983	0.898	0.851	–	–	–	–	–	0.828	0.738	0.69	0.738	0.773	0.358	0.344	0.345	0.17	0.117
A-427	0.865	0.996	0.942	0.831	0.201	0.206	0.219	0.152	0.157	1.05	1.06	1.05	0.878	0.547	0.681	0.729	0.672	0.47	0.325
ABC-1	0.932	1.19	1.01	1.44	0.158	0.138	0.196	0.164	0.218	1.19	1.17	1.15	1.1	0.829	0.921	0.673	1.09	0.85	0.696
BEN	0.478	0.67	0.764	0.417	0.465	0.5	0.415	0.526	0.436	0.914	1.29	0.939	0.977	0.757	0.891	1.05	1.21	0.736	0.401
CAL-12T	0.293	0.434	0.382	0.326	0.335	0.339	0.347	0.34	0.382	1.11	1.22	1.14	1.06	1.18	0.865	0.754	0.775	0.697	0.606
COR-L23	0.982	1.08	1.07	1.1	0.2	0.213	0.227	0.206	0.198	0.957	0.851	0.859	0.752	0.662	0.374	0.377	0.318	0.257	0.189
COR-L 105	0.351	0.424	0.315	0.421	0.342	0.386	0.453	0.378	0.371	0.915	1.03	1.15	1.07	1.02	0.585	0.577	0.636	0.661	0.693
Calu-6	0.626	0.662	1.14	0.568	–	–	–	–	–	1.03	0.989	0.984	0.973	0.977	0.787	0.603	0.6	0.484	0.259
ChaGo-K-1	–	–	–	–	0.263	0.209	0.3	0.191	0.226	–	–	–	–	–	0.437	0.417	0.4	0.315	0.228
EBC-1	0.187	0.226	0.193	0.255	–	–	–	–	–	0.982	0.812	0.918	0.769	0.871	0.765	0.663	0.795	0.666	0.5
EKVX	0.207	0.209	0.169	0.199	0.256	0.395	0.385	0.335	0.42	0.335	0.935	0.856	0.886	0.656	–	0.735	0.79	0.79	0.479
EMC-BAC-2	0.782	0.903	0.865	0.564	0.326	0.309	0.274	0.255	0.314	0.743	0.731	0.743	0.75	0.691	0.667	0.504	0.455	0.367	0.271
EPLC-272H	0.313	0.16	0.573	0.11	0.263	0.191	0.232	0.28	0.252	0.727	1.08	0.947	0.849	0.664	1.13	0.739	0.833	0.914	0.49
H3255	0.249	0.284	0.208	0.216	–	0.534	0.613	0.532	0.17	–	0.686	0.599	0.755	0.146	–	0.554	0.565	0.477	0.345
HARA	0.789	0.943	0.756	0.698	0.0933	0.112	0.107	0.11	0.108	0.72	0.945	0.81	0.773	0.666	0.9	1.19	0.844	1.01	0.444
HCC-15	0.644	0.734	0.521	0.655	0.522	0.412	0.5	0.384	0.599	0.903	0.947	0.898	0.993	0.834	0.791	0.767	0.684	0.637	0.589
HCC-44	0.754	0.916	1.11	0.467	0.795	0.953	1.06	0.848	0.996	0.811	0.842	0.868	0.786	0.717	0.975	1.02	0.949	1.02	0.854
HCC-78	0.703	0.794	0.603	0.198	0.282	0.487	0.497	0.493	0.425	0.232	0.343	0.348	0.356	0.284	0.676	0.778	0.855	–	0.471
HCC-366	0.936	1.05	0.961	1.08	0.097	0.0983	0.148	0.0779	0.15	0.337	0.391	0.456	0.462	0.358	0.413	0.344	0.318	0.311	0.17

Cell Line	relative viability (AZD5582 + Lapatinib; first compound 0.001581 µM)	relative viability (AZD5582 + Lapatinib; first compound 0.005 µM)	relative viability (AZD5582 + Lapatinib; first compound 0.01581 µM)	relative viability (AZD5582 + Lapatinib; first compound 0.05 µM)	relative viability ([1]; first compound 0.2 µM)	relative viability ([1]; first compound 0.6325 µM)	relative viability ([1]; first compound 2 µM)	relative viability ([1]; first compound 6.325 µM)	relative viability ([1]; first compound 20 µM)	relative viability (Temozolomide + Alpelisib; first compound 0.2 µM)	relative viability (Temozolomide + Alpelisib; first compound 0.6325 µM)	relative viability (Temozolomide + Alpelisib; first compound 2 µM)	relative viability (Temozolomide + Alpelisib; first compound 6.325 µM)	relative viability (Temozolomide + Alpelisib; first compound 20 µM)	relative viability (Temozolomide + Olaparib; first compound 0.2 µM)	relative viability (Temozolomide + Olaparib; first compound 0.6325 µM)	relative viability (Temozolomide + Olaparib; first compound 2 µM)	relative viability (Temozolomide + Olaparib; first compound 6.325 µM)	relative viability (Temozolomide + Olaparib; first compound 20 µM)
HCC-827	0.222	0.183	0.179	0.163	0.428	0.436	0.409	0.458	0.114	0.995	0.978	1.02	0.995	0.136	0.749	0.645	0.665	0.432	0.107
HOP-62	0.748	1.06	1.02	0.958	0.534	0.418	0.367	0.376	0.348	1.18	1	0.896	0.847	0.814	0.407	0.31	0.429	0.277	0.129
IA-LM	0.623	0.725	0.809	0.584	–	–	–	–	–	0.956	0.716	0.811	0.716	0.711	0.908	0.744	0.86	0.759	0.694
LC-2-ad	0.966	1.07	0.888	0.904	0.429	0.517	0.505	0.41	0.422	0.896	0.842	0.942	0.818	0.642	0.671	0.72	0.696	0.591	0.468
LCLC-97TM1	–	0.627	0.404	0.294	0.186	0.242	0.212	0.184	0.191	0.253	0.236	0.28	0.246	0.249	0.512	0.447	0.436	0.238	0.226
LCLC-103H	–	–	–	–	0.486	0.481	0.566	0.456	0.413	0.819	0.976	1.09	0.999	0.927	0.82	0.79	0.85	0.731	0.617
LK-2	0.654	1.03	0.965	0.952	0.153	0.155	0.154	0.169	0.151	0.544	1.07	1.1	0.466	0.391	0.736	0.702	0.593	0.355	0.257
LOU-NH91	0.815	0.817	0.794	0.797	0.548	0.728	0.687	0.641	0.482	0.57	0.726	0.789	0.702	0.47	0.8	0.936	0.913	0.863	0.547
LU99A	1.15	1.28	0.923	1.17	0.259	0.262	0.275	0.259	0.303	0.619	0.49	0.5	0.489	0.56	0.285	0.258	0.295	0.155	0.119
NCI-H441	–	–	–	–	0.691	0.775	0.785	0.62	0.611	0.881	0.804	0.901	0.743	0.566	0.7	0.569	0.603	0.527	0.337
NCI-H522	–	–	–	–	0.449	0.586	0.56	0.538	0.595	–	–	–	–	–	0.64	0.543	0.762	0.574	0.469
NCI-H1299	0.846	0.883	0.971	0.812	–	–	–	–	–	1.11	1.11	1.14	1.04	1.05	1	0.99	0.957	0.923	0.967
NCI-H1563	0.909	1.15	0.788	1.64	–	–	–	–	–	0.957	1	1.01	0.861	0.94	–	–	–	–	–
NCI-H1623	–	–	–	–	–	0.421	0.365	0.475	0.293	–	–	–	–	–	–	–	–	–	–
NCI-H1648	–	–	–	–	–	0.525	0.397	0.448	0.435	–	–	–	–	–	–	1.09	0.654	0.826	0.468
NCI-H1650	0.587	0.832	0.581	0.37	0.484	0.441	0.424	0.353	0.461	–	–	–	–	–	0.854	0.795	0.776	0.672	0.703
NCI-H1792	0.862	0.935	0.798	1.01	–	–	–	–	–	0.535	0.749	0.677	0.651	0.791	0.31	0.388	0.251	0.361	0.31
NCI-H2342	–	–	–	–	0.49	0.57	0.492	0.598	0.346	–	–	–	–	–	0.344	0.411	0.454	0.386	0.36
SW 900	–	–	–	–	0.63	0.703	0.498	0.542	0.462	–	–	–	–	–	1.02	1.05	0.871	0.946	0.776
